Laboratory results reported in US4616014A, “Triazine derivatives, and pharmaceutical compositions comprising the same” (Fujisawa Pharmaceutical Co., Ltd., priority 1981, dated 1986).
Counter-ions that a name gives are not always drawn. Like-named read-outs stand apart in the source and are kept apart here. Blank lines part the entries; values can stand above or below the compound they belong to.

Columns and labels:
[1] = test system: platelet aggregation induced by adenosine diphosphate (ADP); test: Inhibition of ADP-induced platelet aggregation in platelet rich plasma (Test Method B); assay type: cell-based, rabbit; details: ADP (2.5 μM), 37° C., 2 min, read-out: ID50, ADP
Experimental: (§1) Platelet rich plasma (PRP) which contains 6.5-7.5×10^8 platelet/ml was prepared from rabbit blood. To the 200 μl of PRP, 5 μl of calcium chloride (1 mM) and 50 μl of pH 7.4 Tris-acetate solution (5 mM) containing 120 mM NaCl and test compound were added successively, and then stirred for 2 min. at 37° C. To the solution 5 μl of adenosine diphosphate (ADP) (2.5 μM) or collagen (2.5 μg/ml) was added as an aggregation inducer. Aggregation was measured by using an aggregometer (NKK HEMA TRACER 1).

[2] = test system: platelet aggregation induced by collagen; test: Inhibition of collagen-induced platelet aggregation in platelet rich plasma (Test Method B); assay type: cell-based, rabbit; details: collagen (2.5 μg/ml), 37° C., 2 min, read-out: ID50, Collagen
Experimental: as §1

[3] = test system: mean blood pressure; test: Antihypertensive test in DOCA/saline hypertensive rats (Test Method A); assay type: in vivo, male Wister rats; details: Rattus norvegicus, DOCA hypertensive rats, read-out: Effect Max (mean ratio of maximum decrease of blood pressure); for inhibition in vivo at 1 mg/kg: d: orally; for inhibition in vivo at 0.1 mg/kg: c: orally
Experimental: Five-week old male Wister rats were uninephrectomized under anesthesia. Deoxycorticosterone acetate (DOCA) (30 mg/kg), suspended in peanut oil, was injected subcutaneously twice a week and 1% saline was substituted for the drinking water. Animals with mean blood pressure 150-200 mmHg were used for experiment between 5 and 7 weeks after surgery. The test compounds were administered intraperitonealy or orally. Blood pressure was measured at the femoral artery by means of a pressure transducer and recorded as electrically integrated values of mean arterial pressure.

[4] = rabbit PRP, pH 7.4, listed as Ex. 76, 2 min
[5] = rabbit PRP, pH 7.4, listed as Ex. 75, 2 min
[6] = Oryctolagus cuniculus, Platelet, pH 7.4, rabbit PRP

IC50 [1, 4]: 1200 nM
IC50 [2, 4]: 360 nM
SMILES: CC1NC(=O)NN=C1c1ccc2c(c1)CCC(=O)N2C (single isomer, unassigned; (+)) [Example 76, (+)-5-Methyl-6-(1-methyl-2-oxo-1,2,3,4-tetrahydroquinolin-6-yl)-4,5-dihydro-1,2,4-triazin-3(2H)-one]
inhibition in vivo at 1 mg/kg ([3]; po): 56%

IC50 [1, 5]: 98 nM
IC50 [2, 5]: 34 nM
SMILES: CC1NC(=O)NN=C1c1ccc2c(c1)CCC(=O)N2C (single isomer, unassigned; (-)) [Example 75, (-)-5-methyl-6-(1-methyl-2-oxo-1,2,3,4-tetrahydroquinolin-6-yl)-4,5-dihydro-1,2,4-triazin-3(2H)-one]
inhibition in vivo at 0.1 mg/kg ([3]; po): 55%

SMILES: CC1N=C(N2CCN(C(=O)c3ccco3)CC2)NN=C1c1ccccc1 (stereo not drawn) [4-(2), 3-[4-(2-Furoyl)-1-piperazinyl]-5-methyl-6-phenyl-2,5-dihydro-1,2,4-triazine]
inhibition in vivo at 10 mg/kg ([3]; ip, a: intraperitonealy): 48.9%

SMILES: CC1N=C(NCCO)NN=C1c1ccccc1 (stereo not drawn) [6-(2), 3-(2-Hydroxyethylamino)-5-methyl-6-phenyl-2,5-dihydro-1,2,4-triazine]
inhibition in vivo at 10 mg/kg ([3]; ip, a: intraperitonealy): 43.1%

SMILES: CC1N=C(N2CCOCC2)NN=C1c1ccccc1 (stereo not drawn) [8-(2), 5-methyl-3-morpholino-6-phenyl-2,5-dihydro-1,2,4-triazine hydrochloride]
inhibition in vivo at 10 mg/kg ([3]; ip, a: intraperitonealy): 48.9%

SMILES: CC1N=C(N2CCCCC2)NN=C1c1ccccc1 (stereo not drawn) [10-(2), 5-Methyl-6-phenyl-3-piperidino-2,5-dihydro-1,2,4-triazine]
inhibition in vivo at 10 mg/kg ([3]; ip, a: intraperitonealy): 46.5%
inhibition in vivo at 10 mg/kg ([3]; po, b: orally): 50%

SMILES: CC1NC(=O)NN=C1c1ccccc1 (stereo not drawn) [36-(3), 5-methyl-6-phenyl-4,5-dihydro-1,2,4-triazin-3(2H)-one]
inhibition in vivo at 10 mg/kg ([3]; ip, a: intraperitonealy): 45.2%

SMILES: CC1NC(=O)NN=C1c1ccc(Cl)cc1 (stereo not drawn) [39-(2), 6-(4-Chlorophenyl)-5-methyl-4,5-dihydro-1,2,4-triazin-3(2H)-one]
inhibition in vivo at 10 mg/kg ([3]; ip, a: intraperitonealy): 57.1%
inhibition in vivo at 10 mg/kg ([3]; po, b: orally): 38.6%

IC50 [1, 6]: 54 nM
IC50 [2, 6]: 18 nM
SMILES: CC1NC(=O)NN=C1c1ccc2c(c1)CCC(=O)N2 (stereo not drawn) [67-(3), 5-Methyl-6-(2-oxo-1,2,3,4-tetrahydroquinolin-6-yl)-4,5-dihydro-1,2,4-triazin-3(2H)-one]
inhibition in vivo at 0.1 mg/kg ([3]; po): 43%

IC50 [1, 6]: 140 nM
IC50 [2, 6]: 42 nM
SMILES: CCCCN1C(=O)CCc2cc(C3=NNC(=O)NC3C)ccc21 (stereo not drawn) [68-(3), 6-(1-Butyl-2-oxo-1,2,3,4-tetrahydroquinolin-6-yl)-5-methyl-4,5-dihydro-1,2,4-triazin-3(2H)-one]
inhibition in vivo at 1 mg/kg ([3]; po): 62%

SMILES: CC1N=C(NN)NN=C1c1ccc(Cl)cc1 (stereo not drawn) [Example 25-(4), 6-(4-chlorophenyl)-3-hydrazino-5-methyl-2,5-dihydro-1,2,4-triazine hydrochloride]
inhibition in vivo at 10 mg/kg ([3]; ip, a: intraperitonealy): 51.7%
inhibition in vivo at 10 mg/kg ([3]; po, b: orally): 37.4%

SMILES: CC1NC(=O)NN=C1c1ccc(Br)cc1 (stereo not drawn) [Example 32-(3), 37-(2), 6-(4-bromophenyl)-5-methyl-4,5-dihydro-1,2,4-triazin-3(2H)-one]
inhibition in vivo at 10 mg/kg ([3]; ip, a: intraperitonealy): 61.8%
inhibition in vivo at 10 mg/kg ([3]; po, b: orally): 58.3%

IC50 [1, 6]: 160 nM
IC50 [2, 6]: 110 nM
SMILES: CC1NC(=O)NN=C1c1ccc2c(c1)CCC(=O)N2C (stereo not drawn) [Example 49-(3), 77-(2), 5-methyl-6-(1-methyl-2-oxo-1,2,3,4-tetrahydroquinolin-6-yl)-4,5-dihydro-1,2,4-triazin-3(2H)-one]
inhibition in vivo at 0.1 mg/kg ([3]; po): 43%
inhibition in vivo at 1 mg/kg ([3]; po): 70%

IC50 [1, 6]: 9800 nM
IC50 [2, 6]: 17000 nM
SMILES: CC1NC(=O)N(C)N=C1c1ccc2c(c1)CCC(=O)N2C (stereo not drawn) [Example 71, 2,5-Dimethyl-6-(1-methyl-2-oxo-1,2,3,4-tetrahydroquinolin-6-yl)-4,5-dihydro-1,2,4-triazin-3(2H)-one]
